# Assay results from ChEMBL document CHEMBL1127153, “Synthesis and anti-arthritic activity of a series of 1-aryl-3-dimethylamino-1,4-dihydroisoquinolines” (1993).
# Experiments:
# Assay type in all cases: functional
# Rattus norvegicus [1] = assay: Antiarthritic activity against rat adjuvant model after peroral administration of 25 mg/Kg of compound, activity expressed as %maximum inhibitory effect on injected paw depth
# Rattus norvegicus [2] = assay: Antiarthritic activity against rat adjuvant model after peroral administration of 25 mg/Kg of compound, activity expressed as %maximum inhibitory effect on arthritis score.
# Rattus norvegicus [3] = assay: Antiarthritic activity against rat adjuvant model after peroral administration of 10 mg/Kg of compound, activity expressed as %maximum inhibitory effect on arthritis score.
# Rattus norvegicus [4] = assay: The compound was examined for cell accumulation in the rat by pleural exudate model after peroral administration at 6 mg/Kg, activity expressed as percent inhibition.; details: po
# Rattus norvegicus [5] = assay: The compound was examined for cell accumulation in the rat by Arthus reaction after peroral administration at 50 mg/Kg, activity expressed as percent inhibition.; details: po
# Rattus norvegicus [6] = assay: The compound was examined for cell accumulation in the rat by polyvinyl sponge model after peroral administration at 10 mg/Kg, activity expressed as percent inhibition.; details: po
# Rattus norvegicus [7] = assay: The compound was examined for cell accumulation in the rat by Arthus reaction after peroral administration at 12.5 mg/Kg, activity expressed as percent inhibition.; details: po
# Rattus norvegicus [8] = assay: The compound was examined for cell accumulation in the rat by pleural exudate model after peroral administration at 12.5 mg/Kg, activity expressed as percent inhibition.; details: po
# Rattus norvegicus [9] = assay: The compound was examined for cell accumulation in the rat by Arthus reaction after peroral administration at 6.25 mg/Kg, activity expressed as percent inhibition.; details: po
# Rattus norvegicus [10] = assay: The compound was examined for cell accumulation in the rat by pleural exudate model after peroral administration at 3 mg/Kg, activity expressed as percent inhibition.; details: po
# Rattus norvegicus [11] = assay: Antiarthritic activity against rat adjuvant model after peroral administration of 10 mg/Kg of compound, activity expressed as %maximum inhibitory effect on injected paw depth
# Rattus norvegicus [12] = assay: The compound was examined for cell accumulation in the rat by Arthus reaction after peroral administration at 25 mg/Kg, activity expressed as percent inhibition.; details: po
# Rattus norvegicus [13] = assay: The compound was examined for cell accumulation in the rat by polyvinyl sponge model after peroral administration at 5 mg/Kg, activity expressed as percent inhibition.; details: po
# Rattus norvegicus [14] = assay: Antiarthritic activity against rat adjuvant model after peroral administration of 25 mg/Kg of compound: activity expressed as %maximum inhibitory effect on arthritis score.
# Rattus norvegicus [15] = assay: Antiarthritic activity against rat adjuvant model after peroral administration of 12.5 mg/Kg of compound, activity expressed as %maximum inhibitory effect on injected paw depth
# Rattus norvegicus [16] = assay: The compound was examined for cell accumulation in the rat by polyvinyl sponge model after peroral administration at 25 mg/Kg, activity expressed as percent inhibition.; details: po
# Rattus norvegicus [17] = assay: Antiarthritic activity against rat adjuvant model after peroral administration of 12.5 mg/Kg of compound: activity expressed as %maximum inhibitory effect on arthritis score.
# Rattus norvegicus [18] = assay: The compound was examined for cell accumulation in the rat by pleural exudate model after peroral administration at 25 mg/Kg, activity expressed as percent inhibition.; details: po
# Rattus norvegicus [19] = assay: Antiarthritic activity against rat adjuvant model after peroral administration of 12.5 mg/Kg of compound, activity expressed as %maximum inhibitory effect on arthritis score.
# Rattus norvegicus [20] = assay: The compound was examined for cell accumulation in the rat by pleural exudate model after peroral administration at 12 mg/Kg, activity expressed as percent inhibition.; details: po
# Rattus norvegicus [21] = assay: The compound was examined for cell accumulation in the rat by Arthus reaction after peroral administration at 12.5mg/Kg, activity expressed as percent inhibition.; details: po
# Rattus norvegicus [22] = assay: The compound was examined for cell accumulation in the rat by pleural exudate model after oral administration at 25 mg/Kg, activity expressed as percent inhibition.
# Rattus norvegicus [23] = assay: The compound was examined for cell accumulation in the rat by polyvinyl sponge model after peroral administration at 12.5 mg/Kg, activity expressed as percent inhibition.; details: po
# Rattus norvegicus [24] = assay: Antiarthritic activity against rat adjuvant model after peroral administration of 5 mg/Kg of compound, activity expressed as %maximum inhibitory effect on arthritis score.
# Rattus norvegicus [25] = assay: Antiarthritic activity against rat adjuvant model after peroral administration of 5 mg/Kg of compound, activity expressed as %maximum inhibitory effect on injected paw depth
# Rattus norvegicus [26] = assay: Antiarthritic activity against rat adjuvant model after intravenous administration of 25 mg/Kg of compound, activity expressed as %maximum inhibitory effect on injected paw depth
# Rattus norvegicus [27] = assay: Antiarthritic activity against rat adjuvant model after peroral administration of 50 mg/Kg of compound, activity expressed as %maximum inhibitory effect on injected paw depth
# Rattus norvegicus [28] = assay: Antiarthritic activity against rat adjuvant model after intravenous administration of 50 mg/Kg of compound, activity expressed as %maximum inhibitory effect on arthritis score.
# Rattus norvegicus [29] = assay: Antiarthritic activity against rat adjuvant model after intravenous administration of 25 mg/Kg of compound, activity expressed as %maximum inhibitory effect on arthritis score.
# Rattus norvegicus [30] = assay: Antiarthritic activity against rat adjuvant model after peroral administration of 6 mg/kg of compound, activity expressed as %maximum inhibitory effect on injected paw depth; details: route oral
# Rattus norvegicus [31] = assay: Antiarthritic activity against rat adjuvant model after peroral administration of 6 mg/Kg of compound, activity expressed as %maximum inhibitory effect on arthritis score.
smiles,measurement,setting,value
CN(C)C1=NC(c2ccccc2)c2ccccc2C1.Cl (stereo not drawn),Max inhibitory effect,Rattus norvegicus [1],-6%
same,Max inhibitory effect,Rattus norvegicus [2],13%
COc1ccc2c(c1)CC(N(C)C)=NC2c1ccc(Cl)cc1.Cl (stereo not drawn),Max inhibitory effect,Rattus norvegicus [1],0%
same,Max inhibitory effect,Rattus norvegicus [2],11%
Cl.Clc1ccc(C2N=C(NCc3ccccc3)Cc3ccccc32)cc1 (stereo not drawn),Max inhibitory effect,Rattus norvegicus [1],10%
same,Max inhibitory effect,Rattus norvegicus [2],-7%
Cl.NC1=NC(c2ccc(Cl)cc2)c2ccccc2C1 (stereo not drawn),Max inhibitory effect,Rattus norvegicus [1],0%
same,Max inhibitory effect,Rattus norvegicus [2],-3%
CN(C)C1=NC(c2cccc(Cl)c2)c2ccccc2C1.Cl (stereo not drawn),Max inhibitory effect,Rattus norvegicus [3],29%
same,inhibition in vivo at 6 mg/kg,Rattus norvegicus [4],41%
same,inhibition in vivo at 50 mg/kg,Rattus norvegicus [5],42%
same,Max inhibitory effect,Rattus norvegicus [1],84%
same,inhibition in vivo at 10 mg/kg,Rattus norvegicus [6],35%
same,inhibition in vivo at 12.5 mg/kg,Rattus norvegicus [7],30%
same,inhibition in vivo at 12.5 mg/kg,Rattus norvegicus [8],41%
same,inhibition in vivo at 6.25 mg/kg,Rattus norvegicus [9],31%
same,inhibition in vivo at 3 mg/kg,Rattus norvegicus [10],36%
same,Max inhibitory effect,Rattus norvegicus [2],53%
same,Max inhibitory effect,Rattus norvegicus [11],32%
same,inhibition in vivo at 25 mg/kg,Rattus norvegicus [12],29%
same,inhibition in vivo at 5 mg/kg,Rattus norvegicus [13],8%
CN(C)C1=NC(c2ccccc2Cl)c2ccccc2C1.Cl (stereo not drawn),inhibition in vivo at 6 mg/kg,Rattus norvegicus [4],27%
same,inhibition in vivo at 50 mg/kg,Rattus norvegicus [5],34%
same,Max inhibitory effect,Rattus norvegicus [14],36%
same,Max inhibitory effect,Rattus norvegicus [15],12%
same,Max inhibitory effect,Rattus norvegicus [1],30%
same,inhibition in vivo at 12.5 mg/kg,Rattus norvegicus [8],28%
same,inhibition in vivo at 25 mg/kg,Rattus norvegicus [16],19%
same,Max inhibitory effect,Rattus norvegicus [17],10%
same,inhibition in vivo at 25 mg/kg,Rattus norvegicus [12],19%
same,inhibition in vivo at 25 mg/kg,Rattus norvegicus [18],48%
CN(C)C1=NC(c2ccc([N+](=O)[O-])cc2)c2ccccc2C1.Cl (stereo not drawn),Max inhibitory effect,Rattus norvegicus [19],30%
same,Max inhibitory effect,Rattus norvegicus [15],33%
CN(C)C1=NC(c2ccc(N)cc2)c2ccccc2C1.Cl (stereo not drawn),Max inhibitory effect,Rattus norvegicus [1],6%
same,Max inhibitory effect,Rattus norvegicus [2],9%
Cl.Clc1ccc(C2N=C(N3CCOCC3)Cc3ccccc32)cc1 (stereo not drawn),Max inhibitory effect,Rattus norvegicus [1],7%
same,Max inhibitory effect,Rattus norvegicus [2],5%
CN(C)C1=NC(c2ccccc2F)c2ccccc2C1.Cl (stereo not drawn),inhibition in vivo at 50 mg/kg,Rattus norvegicus [5],55%
same,inhibition in vivo at 12 mg/kg,Rattus norvegicus [20],33%
same,Max inhibitory effect,Rattus norvegicus [1],13%
same,inhibition in vivo at 12.5 mg/kg,Rattus norvegicus [21],28%
same,inhibition in vivo at 10 mg/kg,Rattus norvegicus [6],12%
same,inhibition in vivo at 25 mg/kg,Rattus norvegicus [16],24%
same,Max inhibitory effect,Rattus norvegicus [2],37%
same,inhibition in vivo at 25 mg/kg,Rattus norvegicus [12],44%
CN(C)C1=NC(c2ccc(Cl)cc2)c2ccccc2C1.Cl (stereo not drawn),Max inhibitory effect,Rattus norvegicus [19],44%
same,inhibition in vivo at 25 mg/kg,Rattus norvegicus [22],28%
same,inhibition in vivo at 6 mg/kg,Rattus norvegicus [4],19%
same,Max inhibitory effect,Rattus norvegicus [15],80%
same,inhibition in vivo at 12.5 mg/kg,Rattus norvegicus [8],21%
same,inhibition in vivo at 25 mg/kg,Rattus norvegicus [16],30%
same,inhibition in vivo at 12.5 mg/kg,Rattus norvegicus [23],15%
same,Max inhibitory effect,Rattus norvegicus [24],18%
same,Max inhibitory effect,Rattus norvegicus [25],30%
Br.CN(C)C1=NC(c2ccc(Cl)cc2)c2ccc(O)cc2C1 (stereo not drawn),Max inhibitory effect,Rattus norvegicus [26],46%
same,inhibition in vivo at 50 mg/kg,Rattus norvegicus [5],18%
same,Max inhibitory effect,Rattus norvegicus [27],5%
same,Max inhibitory effect,Rattus norvegicus [28],16%
same,Max inhibitory effect,Rattus norvegicus [29],44%
same,inhibition in vivo at 25 mg/kg,Rattus norvegicus [18],21%
CN(C)C1=NC(c2ccc(Cl)cc2)c2ccccc2C1 (stereo not drawn),Max inhibitory effect,Rattus norvegicus [1],-1%
same,Max inhibitory effect,Rattus norvegicus [2],29%
CN(C)C1=NC(c2ccc(Cl)cc2)c2cc(Cl)ccc2C1.Cl (stereo not drawn),Max inhibitory effect,Rattus norvegicus [30],36%
same,Max inhibitory effect,Rattus norvegicus [1],86%
same,Max inhibitory effect,Rattus norvegicus [31],34%
same,Max inhibitory effect,Rattus norvegicus [2],54%
CN(C)C1=NC(c2ccc(Cl)cc2Cl)c2ccccc2C1.Cl (stereo not drawn),Max inhibitory effect,Rattus norvegicus [19],15%
same,Max inhibitory effect,Rattus norvegicus [15],44%
